From patent US8865913B2, “Crystalline forms and processes for their preparation” (BIAL-Portela & C.A., S.A, priority 2010, dated 2014)
Values belong to the compound of their own block, whether it stands above or below them.

Assays:
Type in all cases: physicochemical
[1] = Organic vapor stress experiments
Method: e. Organic Vapor Stress Experiments
Samples of starting material were exposed to vapors of a specified organic solvent for a given amount of time by placing open vials with solids tested into 20 mL vials containing solvent. Organic vapor stress experiments were conducted at ambient temperature.

[2] = Aqueous vapor stress experiments
Method: d. Aqueous Vapor Stress Experiments
Samples of starting material were exposed to ˜85% and ˜97% relative humidity at ambient temperature and ˜75% relative humidity at ˜40° C. for a specified duration.

[3] = Moisture sorption analysis (VTI SGA-100, 5 to 95% RH); conditions: for hysteresis upon desorption: decreasing relative humidity; for hysteresis upon desorption / weight loss between ~95% and ~5% RH: desorption; for weight loss between ~95% and ~5% RH: ~95% to ~5% RH; for weight gain between ~5% and ~75% RH / total water uptake between ~5% and ~95% RH / weight gain between ~75% and ~95% RH: sorption; for weight gain between ~5% and ~75% RH: ~5% to ~75% RH; for total water uptake between ~5% and ~95% RH: ~5% to ~95% RH; for weight gain between ~75% and ~95% RH: ~75% to ~95% RH
Method: 9. Moisture Sorption Analysis
Moisture sorption/desorption data were collected on a VTI SGA-100 Vapor Sorption Analyzer. NaCl and PVP were used as calibration standards. Samples were not dried prior to analysis. Sorption and desorption data were collected over a range from 5 to 95% RH at 10% RH increments under a nitrogen purge. The equilibrium criterion used for analysis was less than 0.0100% weight change in 5 minutes with a maximum equilibration time of 3 hours. Data were not corrected for the initial moisture content of the samples.

[4] = Heat stress experiments of amorphous material; conditions: sample no. 3
Description: i. Heat Stress Experiments
Samples of amorphous material were placed in heating ovens at temperature set below or above the glass transition, or were agitated on a shaker block at elevated temperature for a given duration.

[5] = Slow cooling of the melt experiment; conditions: 77° C., SC to RT; sample no. 3
Description: j. Slow Cooling of the Melt Experiment
Samples of amorphous material were heated on a hot plate at temperature above the glass transition. The sample was then allowed to slow cool to ambient by turning the heating device off.

[6] = Mechanical stress experiments (ball mill, dry/wet grinding)
Description: h. Mechanical Stress Experiments
Samples of starting material were placed in a Retsch ball mill and milled for two five-minute cycles without solvent (dry grinding) or with a small amount of solvent added (wet grinding) scraping the solids between the cycles. Ten-minute cycles were used for milling of a selected sample without addition of solvent.

[7] = Slurry experiments (incl. water activity slurries)
Method: Solutions were prepared by addition of a solvent or solvent mixture to the starting material with excess solids present. The mixtures were then agitated in sealed vials at either ambient or a set temperature. For agitation at subambient temperature, chilled solvent was added and the sample was immediately transferred to a freezer. After a given amount of time, the solids were isolated.

XRPD result after organic vapor stress ([1]; Acetone, 1 day, starting material sample no. 2): Form A
XRPD result after organic vapor stress ([1]; CHCl3, 1 day, starting material sample no. 2): Form A
XRPD result after organic vapor stress ([1]; EtOAc, 1 day, starting material sample no. 2): Form B
XRPD result after organic vapor stress ([1]; IPE, 2 days, starting material sample no. 3): Form A
XRPD result after aqueous vapor stress ([2]; 75% RH, 40° C., 1 day, starting material sample no. 3): Disordered, Form A
XRPD result after aqueous vapor stress ([2]; 85% RH, 3 days, starting material sample no. 14): No peaks
XRPD result after aqueous vapor stress ([2]; 97% RH, RT, 6 days, starting material sample no. 3): Amorphous/Form A mixture
moisture retained upon desorption ([3]; desorption between ~85% and ~15% RH): 3.6-5.8 wt %
hysteresis upon desorption ([3]; listed as Sample No. 2): large hysteresis
weight loss between ~95% and ~5% RH ([3]; listed as Sample No. 2): ~8.6 wt %
weight loss between ~95% and ~5% RH ([3]; listed as amorphous compound 2): around 8.6 wt %
weight gain upon equilibration at ~5% RH ([3]; moisture sorption, listed as Sample No. 2): ~0.1 wt %
weight gain upon equilibration at ~5% RH ([3]; moisture sorption, listed as amorphous compound 2): around 0.08 wt %
weight gain between ~5% and ~75% RH ([3]; listed as Sample No. 2): approximately 1.2 wt %
weight gain between ~5% and ~75% RH ([3]; listed as amorphous compound 2): around 1.2 wt %
total water uptake between ~5% and ~95% RH ([3]; listed as Sample No. 2): ~9.9 wt %
weight gain between ~75% and ~95% RH ([3]; listed as Sample No. 2): ~8.7 wt %
weight gain between ~75% and ~95% RH ([3]; listed as amorphous compound 2): around 8.7 wt %
XRPD result after heat stress ([4]; 36° C., 1 day, heating with agitation): Disordered, Form A
XRPD result after heat stress ([4]; 40° C., 3 hrs): Amorphous/Form A mixture
XRPD result after heat stress ([4]; 50° C., 3 hrs): Amorphous/Form A mixture
XRPD result after heat stress ([4]; 60° C., 3 hrs): Disordered, Form A
XRPD result after heat stress ([4]; 80° C., 3 hrs): Form A^c
XRPD result after heat stress ([4]; 80° C., 1 day): Form A^c
XRPD result after cooling from the melt [5]: Amorphous/Form A mixture
SMILES: Fc1cc(F)c2c(c1)C[C@@H](n1c(CCNCc3ccccc3)c[nH]c1=S)CO2 [Amorphous, 1-[(3R)-6,8-difluoro-3,4-dihydro-2H-1-benzopyran-3-yl]-1,3-dihydro-5-[2-[(phenylmethyl)amino]ethyl]-2H-Imidazole-2-thione]
hysteresis upon desorption ([3]; listed as amorphous compound 2): hysteresis over a range of more than 50% RH
hygroscopicity ([3]; moisture sorption, amorphous material): significant hygroscopicity (a material that exhibits ≧2.0 wt % water uptake over a specified RH range)

XRPD result after organic vapor stress ([1]; CHCl3, vapor stress, 11 days): Form A
XRPD result after organic vapor stress ([1]; EtOAc, vapor stress, 11 days): Form A
XRPD result after mechanical stress ([6]; Acetone, wet grinding, 2 × 5 min. cycles): Form A
XRPD result after mechanical stress ([6]; DMF, wet grinding, 2 × 5 min. cycles): Form A
XRPD result after mechanical stress ([6]; Dry grinding, 2 × 5 min. cycles): Form A (disordered)
XRPD result after mechanical stress ([6]; Dry grinding, 2 × 10 min. cycles): Form A (disordered)
XRPD result after mechanical stress ([6]; MEK, wet grinding, 2 × 5 min. cycles): Form A
XRPD result after mechanical stress ([6]; TFE, wet grinding, 2 × 5 min. cycles): Form A
XRPD result after mechanical stress ([6]; THF, wet grinding, 2 × 5 min. cycles): Form A
stability of the crystal form upon mechanical stress ([6]; summary statement): remains stable as a crystal form
XRPD result after aqueous vapor stress ([2]; 75% RH, 40° C., 2 days): Form A
XRPD result after aqueous vapor stress ([2]; 85% RH, 2 days): Form A
stability of the crystal form upon aqueous vapor stress ([2]; summary statement): remains stable as a crystal form
hysteresis upon desorption ([3]; listed as Lot 5): Small hysteresis
hysteresis upon desorption ([3]; listed as lot 5): small hysteresis
weight loss between ~95% and ~5% RH [3]: around 0.20 wt %
weight loss between ~95% and ~5% RH ([3]; listed as Lot 5): ~0.20 wt %
weight loss between ~95% and ~5% RH ([3]; listed as lot 5): ~0.20 wt %
weight change upon equilibration at ~5% RH ([3]; moisture sorption): negligible loss
weight change upon equilibration at ~5% RH ([3]; moisture sorption, listed as lot 5): negligible weight loss
weight gain between ~5% and ~75% RH [3]: around 0.02 wt %
weight gain between ~5% and ~75% RH ([3]; listed as Lot 5): ~0.02 wt % gain between ~5% and ~75% RH
weight gain between ~5% and ~75% RH ([3]; listed as lot 5): ~0.02 wt %
total water uptake between ~5% and ~95% RH ([3]; listed as lot 5): ~0.21 wt %
weight gain between ~75% and ~95% RH [3]: around 0.19 wt %
weight gain between ~75% and ~95% RH ([3]; listed as Lot 5): ~0.19 wt % gain between ~75% and ~95% RH
weight gain between ~75% and ~95% RH ([3]; listed as lot 5): ~0.19 wt %
SMILES: Fc1cc(F)c2c(c1)C[C@@H](n1c(CCNCc3ccccc3)c[nH]c1=S)CO2 [Form A, 1-[(3R)-6,8-difluoro-3,4-dihydro-2H-1-benzopyran-3-yl]-1,3-dihydro-5-[2-[(phenylmethyl)amino]ethyl]-2H-imidazole-2-thione]
hygroscopicity ([3]; 5% to 95% RH): low hygroscopicity (a material that exhibits <0.5 wt(weight) % water uptake over a specified relative humidity range)
hysteresis upon desorption [3]: hysteresis between around 85% to around 45% RH
weight change upon equilibration at ~5% RH ([3]; moisture sorption, listed as Lot 5): Negligible loss upon equilibration at ~5% RH

XRPD result of water activity slurry ([7]; amorphous starting material sample no. 2, Water, 50° C., 3 days, aw 1, sample no. 119): Material C (close to Form A + peaks)
XRPD result of water activity slurry ([7]; amorphous starting material sample no. 3, Acetone/water (25/75), aw 0.95, ambient, 6 days, sample no. 108): Form A^c
XRPD result of water activity slurry ([7]; amorphous starting material sample no. 3, Acetone/water (33/67), aw 0.93, ambient, 6 days, washed w/ acetone/water (33/67), sample no. 107): Form A^c
XRPD result of water activity slurry ([7]; amorphous starting material sample no. 3, Acetone/water (60/40), aw 0.89, ambient, 6 days, sample no. 106): Form A
XRPD result of water activity slurry ([7]; amorphous starting material sample no. 3, Acetone/water (82/18), aw 0.80, ambient, 6 days, sample no. 105): Form A
XRPD result of water activity slurry ([7]; amorphous starting material sample no. 3, Acetone/water (88/12), aw 0.73, ambient, 6 days, sample no. 104): Form A
XRPD result of water activity slurry ([7]; amorphous starting material sample no. 3, DMF/water (9/91), aw 0.98, RT, 5 days, washed w/ water, sample no. 115): Form A^c
XRPD result of water activity slurry ([7]; amorphous starting material sample no. 3, DMSO/water (10/90), aw 0.97, RT, 5 days, washed w/ water, sample no. 116): Form A^c
XRPD result of water activity slurry ([7]; amorphous starting material sample no. 3, EtOH/water (67/33), aw 0.82, 40° C., 2 days, sample no. 111): Form A^c
XRPD result of water activity slurry ([7]; amorphous starting material sample no. 3, Ethanol/water (20/80), aw 0.95, ambient, 6 days, sample no. 113): Form A^c
XRPD result of water activity slurry ([7]; amorphous starting material sample no. 3, Ethanol/water (47/53), aw 0.90, ambient, 6 days, sample no. 112): Form A^c
XRPD result of water activity slurry ([7]; amorphous starting material sample no. 3, Ethanol/water (70/30), aw 0.80, ambient, 6 days, sample no. 110): Form A^c
XRPD result of water activity slurry ([7]; amorphous starting material sample no. 3, Ethanol/water (80/20), aw 0.70, ambient, 6 days, sample no. 109): Form A^c
XRPD result of water activity slurry ([7]; amorphous starting material sample no. 3, IPA/water (50/50), aw 0.96, 40° C., 2 days, sample no. 114): Form A^c
XRPD result of water activity slurry ([7]; amorphous starting material sample no. 3, MeOH/water (50/50), aw 0.75, ambient, 6 days, washed w/ MeOH/water (50/50), sample no. 117): Form A^c
XRPD result of water activity slurry ([7]; amorphous starting material sample no. 3, THF/water (50/50), aw 1.03, ambient, 6 days, washed w/ THF/water (50/50), VO, RT, 1 h, sample no. 118): Form A^c
XRPD result of water activity slurry ([7]; amorphous starting material sample no. 3, Water, RT, 4 days, surfactant as wetting agent, aw 1, sample no. 121): Form A
SMILES: Fc1cc(F)c2c(c1)C[C@@H](n1c(CCNCc3ccccc3)c[nH]c1=S)CO2 [compound 2, 1-[(3R)-6,8-difluoro-3,4-dihydro-2H-1-benzopyran-3-yl]-1,3-dihydro-5-[2-[(phenylmethyl)amino]ethyl]-2H-imidazole-2-thione]
